Target: T1, human B2 bradykinin receptors (Homo sapiens, UniProt P30411)
T1 construct: purchased Receptor Biology, Inc. (Baltimore, MD); host or cells: CHO-K1 cells transfected with the human B2 receptor (membranes)
T1 sequence (P30411 1-391): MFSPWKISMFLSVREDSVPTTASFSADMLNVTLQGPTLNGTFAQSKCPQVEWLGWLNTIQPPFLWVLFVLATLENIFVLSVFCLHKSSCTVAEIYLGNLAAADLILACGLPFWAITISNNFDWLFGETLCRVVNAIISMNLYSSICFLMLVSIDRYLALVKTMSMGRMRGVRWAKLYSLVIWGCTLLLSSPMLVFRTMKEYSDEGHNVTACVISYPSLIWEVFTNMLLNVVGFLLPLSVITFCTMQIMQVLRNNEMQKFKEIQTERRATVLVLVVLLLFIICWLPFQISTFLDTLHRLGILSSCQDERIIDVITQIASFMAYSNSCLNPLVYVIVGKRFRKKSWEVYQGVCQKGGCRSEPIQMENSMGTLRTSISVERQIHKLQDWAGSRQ
Assay: Bradykinin B2 (BK2) Receptor Binding Assay
Settings: membranes of CHO-K1 cells transfected with human B2 bradykinin receptors; ~0.25 nM [3H]NPC17731; 60 min at 25°C
Experimental: Cell membranes of CHO-K1 cells transfected with human B2 bradykinin receptors (CH)-hB2) were purchased from Receptor Biology, Inc. (Baltimore,MD).
Samples were harvested on a Brandel Cell Harvester on to Wallac filtermat B sheets (96 sample format), and washed three times with 2 mL cold HEPES-buffer (10 mM, pH 7.5), and dried in a microwave oven.
The data were used to calculate either the % inhibition compared to control binding (when only a single concentration of test compound was evaluated) or a Ki value (when a range of concentrations were tested). Background was subtracted from mean cpm values and % inhibition was calculated as: [(total dpm-test compound dpm)/(total dpm-nonspecific dpm)]x100. Kd and Ki values were calculated using GraphPad PRISM data analysis program.

Cc1ccc2cccc(OCc3c(Cl)ccc(N(C)C(=O)Cc4ccc(C(=O)C=Cc5ccccc5)n4C)c3Cl)c2n1 [Compound 27]
Ki: 3800 nM

CCN(CC)CC(=O)c1ccc(CC(=O)N(C)c2ccc(Cl)c(COc3cccc4ccc(C)nc34)c2Cl)n1C [Compound 48]
Ki: 510 nM

Cc1ccc2cccc(OCc3c(Cl)ccc(N(C)C(=O)Cc4ccc(C(=O)c5ccccc5)s4)c3Cl)c2n1 [Compound 109, 2-(5-Benzoyl-thiophen-2-yl)-N-[2,4-dichloro-3-(2-methyl-quinolin-8-yloxymethyl)-phenyl]-N-methyl-acetamide]
Ki: 53 nM

CC(=O)Nc1ccccc1C(=O)c1ccc(CC(=O)N(C)c2ccc(Cl)c(COc3cccc4ccc(C)nc34)c2Cl)n1C [Compound 36]
Ki: 869 nM

Cc1ccc2cccc(OCc3c(Cl)ccc(N(C)C(=O)Cc4ccc(C(=O)c5ccccn5)n4C)c3Cl)c2n1 [Compound 45]
Ki: 579 nM

COc1ccc(C(=O)c2cc(CC(=O)N(C)c3ccc(Cl)c(COc4cccc5ccc(C)nc45)c3Cl)n(C)c2)cc1 [Compound 2, N-[2,4-Dichloro-3-(2-methyl-quinolin-8-yloxymethyl)-phenyl]-2-[4-(4-methoxybenzoyl)-1-methyl-1 H-pyrrol-2-yl]-N-methyl-acetamide]
Ki: 518 nM

Cc1ccc2cccc(OCc3c(Cl)ccc(N(C)C(=O)Cc4ccc(C(=O)c5cnc(Cl)c(Cl)c5)n4C)c3Cl)c2n1 [Compound 52]
Ki: 427 nM

Cc1nc2c(OCc3c(Cl)ccc(N(C)C(=O)Cc4ccc(C(=O)c5ccc(S(C)(=O)=O)cc5)n4C)c3Cl)cccn2c1Br [Compound 103, N-[3-(3-Bromo-2-methyl-imidazo[1,2-a]pyridin-8-yloxymethyl)-2,4-dichlorophenyl]-2-[5-(4-methanesulfonyl-benzoyl)-1-methyl-1H-pyrrol-2-yl]-N-methyl-acetamide]
Ki: 68.5 nM

Cc1ccc2cccc(OCc3c(Cl)ccc(N(C)C(=O)Cc4ccc(C(=O)c5ccc(F)cc5)n4C)c3Cl)c2n1 [Compound 34]
Ki: 1150 nM

CCCCCC(=O)c1ccc(CC(=O)N(C)c2ccc(Cl)c(COc3cccc4ccc(C)nc34)c2Cl)n1C [Compound 23, N-[2,4-Dichloro-3-(2-methyl-quinolin-8-yloxymethyl)-phenyl]-2-(5-hexanoyl-1-methyl-1H-pyrrol-2-yl)-N-methyl-acetamide]
Ki: 5430 nM

Cc1ccc2cccc(OCc3c(C)ccc(N(C)C(=O)Cc4ccc(-c5ccccc5)n4C)c3C)c2n1 [Compound 97, N-[2,4-Dimethyl-3-(2-methyl-quinolin-8-yloxymethyl)-phenyl]-N-methyl-2-(1-methyl-5-phenyl-1 H-pyrrol-2-yl)-acetamide]
Ki: 7190 nM

Cc1ccc2cccc(OCc3cccc(N(C)C(=O)Cc4ccc(C(=O)c5cccc(C#N)c5)n4C)c3Cl)c2n1 [Compound 116, N-[2-Chloro-3-(2-methyl-quinolin-8-yloxymethyl)-phenyl]-2-[5-(3-cyanobenzoyl)-1-methyl-1 H-pyrrol-2-yl]-N-methyl-acetamide]
Ki: 17600 nM

Cc1ccc2cccc(OCc3c(Cl)ccc(N(C)C(=O)Cc4ccc(C(=O)c5ccc(Cl)s5)n4C)c3Cl)c2n1 [Compound 25]
Ki: 4180 nM

Cc1ccc2cccc(OCc3c(Cl)ccc(N(C)C(=O)Cc4ccc(C(=O)c5cccnc5)n4C)c3Cl)c2n1 [Compound 33]
Ki: 1390 nM

Cc1ccc2cccc(OCc3c(Cl)ccc(N(C)C(=O)Cc4ccc(C(=O)c5ccc(C)s5)n4C)c3Cl)c2n1 [Compound 41]
Ki: 704 nM

Cc1nc2c(OCc3c(Cl)ccc(N(C)C(=O)Cc4ccc(C(=O)c5ccc(C#N)cc5)n4C)c3Cl)cccn2c1Br [Compound 102, N-[3-(3-Bromo-2-methyl-imidazo[1,2-a]pyridin-8-yloxymethyl)-2,4-dichlorophenyl]-2-[5-(4-cyano-benzoyl)-1-methyl-1H-pyrrol-2-yl]-N-methyl-acetamide]
Ki: 47.4 nM

Cc1ccc2cccc(OCc3c(Cl)ccc(N(C)C(=O)Cc4ccc(C(=O)c5ccc(Cl)cc5)n4C)c3Cl)c2n1 [Compound 40]
Ki: 752 nM

Cc1ccc2cccc(OCc3c(Cl)ccc(N(C)C(=O)Cc4ccc(C(=O)C(C)(C)C)n4C)c3Cl)c2n1 [Compound 31]
Ki: 1710 nM

CCOc1ccc(C(=O)c2ccc(CCC(=O)N(C)c3ccc(C)c(COc4cccc5ccc(C)nc45)c3C)n2C)cn1 [Compound 86]
Ki: 309 nM

Cc1ccc2cccc(OCc3c(Cl)ccc(N(C)C(=O)Cc4ccc(C(=O)c5ccc(N)cc5)n4C)c3Cl)c2n1 [Compound 56, 2-[5-(4-Amino-benzoyl)-methyl-1H-pyrrol-2-yl]-N-[2,4-dichloro-3-(2-methyl-quinolin-8-yloxymethyl)-phenyl]-N-methyl-acetamide]
Ki: 406 nM

Cc1ccc2cccc(OCc3c(Cl)ccc(N(C)C(=O)Cc4ccc(C(=O)c5ccccc5)n4C)c3Cl)c2n1 [Compound 29]
Ki: 2290 nM

Cc1ccc2cccc(OCc3c(Cl)ccc(N(C)C(=O)Cc4ccc(C(=O)c5cccc([N+](=O)[O-])c5)n4C)c3Cl)c2n1 [Compound 42]
Ki: 688 nM

Cc1ccc2cccc(OCc3c(Cl)ccc(N(C)C(=O)Cc4ccc(C(=O)c5ccc6ccccc6c5)n4C)c3Cl)c2n1 [Compound 26]
Ki: 4050 nM

Cc1ccc2cccc(OCc3c(Cl)ccc(N(C)C(=O)Cc4ccc(C(=O)CN5CCCC5)n4C)c3Cl)c2n1 [Compound 37]
Ki: 846 nM

Cc1ccc2cccc(OCc3c(Cl)ccc(N(C)C(=O)Cc4ccc(C(=O)CN(C)c5ccccn5)n4C)c3Cl)c2n1 [Compound 49]
Ki: 508 nM

Cc1ccc2cccc(OCc3c(Cl)ccc(N(C)C(=O)Cc4ccc(C(=O)c5ccc(CN(C)C)cc5)n4C)c3Cl)c2n1 [Compound 47]
Ki: 515 nM

Cc1ccc2cccc(OCc3c(Cl)ccc(N(C)C(=O)Cc4ccc(C(=O)c5ccc6c(c5)OCO6)n4C)c3Cl)c2n1 [Compound 50]
Ki: 583 nM

Cc1ccc2cccc(OCc3c(Cl)ccc(N(C)C(=O)Cc4ccc(C(=O)c5ccc(CN6CCCC6)cc5)n4C)c3Cl)c2n1 [Compound 46, N-[2,4-Dichloro-3-(2-methyl-quinolin-8-yloxymethyl)-phenyl]-N-methyl-2-[l-methyl-5-(4-pyrrolidin-1-ylmethyl-benzoyl)-1H-pyrrol-2-yl]-acetamide]
Ki: 560 nM

Cc1ccc2cccc(OCc3c(Cl)ccc(N(C)C(=O)Cc4ccc(C(=O)c5ccsc5)n4C)c3Cl)c2n1 [Compound 55]
Ki: 341 nM

Cc1ccc2cccc(OCc3c(Cl)ccc(N(C)C(=O)Cc4cc(C(=O)c5ccc(C#N)cc5)cs4)c3Cl)c2n1 [Compound 115, 2-[4-(4-Cyano-benzoyl)-thiophen-2-yl]-N-[2,4-dichloro-3-(2-methyl-quinolin-8-yloxymethyl)-phenyl]-N-methyl-acetamide]
Ki: 6.4 nM

CC(C)=CC(=O)c1ccc(CC(=O)N(C)c2ccc(Cl)c(COc3cccc4ccc(C)nc34)c2Cl)n1C [Compound 39]
Ki: 784 nM

2-(5-Benzoyl-thiophen-2-yl)-N-[2,4-dimethyl-3-(2-methyl-quinolin-8-yloxymethyl)-phenyl]-N-methyl-acetamide [Compound 108]
Ki: 90 nM

COc1ccc(C(=O)c2ccc(CC(=O)Nc3ccc(Cl)c(COc4cccc5ccc(C)nc45)c3Cl)n2C)cc1 [Compound 119]
Ki: 14000 nM

Cc1ccc2cccc(OCc3c(Cl)ccc(N(C)C(=O)Cc4ccc(C(=O)c5ccc(C#N)cc5)[nH]4)c3Cl)c2n1 [Compound 6, 2-[5-(4-Cyano-benzoyl)-1 H-pyrrol-2-yl]-N-[2,4-dichloro-3-(2-methyl-quinolin-8-yloxymethyl)-phenyl]-N-methyl-acetamide]
Ki: 41 nM

COc1ccc(C(=O)c2ccc(CCC(=O)N(C)c3ccc(C)c(COc4cccc5ccc(C)nc45)c3C)s2)cc1 [Compound 106]
Ki: 375 nM

CCOc1ccc(C(=O)c2ccc(CCC(=O)N(C)c3ccc(Cl)c(COc4cccc5ccc(C)nc45)c3Cl)n2C)cn1 [Compound 87]
Ki: 143 nM

Cc1ccc2cccc(OCc3c(Cl)ccc(N(C)C(=O)Cc4ccc(C(=O)C5CC5)n4C)c3Cl)c2n1 [Compound 32]
Ki: 1530 nM

Cc1ccc(-c2ccc(CC(=O)N(C)c3ccc(C)c(COc4cccc5ccc(C)nc45)c3C)n2C)cc1 [Compound 98, N-[2,4-Dimethyl-3-(2-methyl-quinolin-8-yloxymethyl)-phenyl]-N-methyl-2-(1-methyl-5-p-tolyl-1H-pyrrol-2-yl)-acetamide]
Ki: 3610 nM

Cc1ccc2cccc(OCc3c(Cl)ccc(N(C)C(=O)Cc4cc(C(=O)c5ccc(S(C)(=O)=O)cc5)cn4C)c3Cl)c2n1 [Compound 1, N-[2,4-Dichloro-3-(2-methyl-quinolin-8-yloxymethyl)-phenyl]-2-[4-(4-methanesulfonyl-benzoyl)-1-methyl-1 H-pyrrol-2-yl]-N-methyl-acetamide]
Ki: 2910 nM

CCCN(C(=O)Cc1ccc(C(=O)c2ccc(C#N)cc2)n1C)c1ccc(Cl)c(COc2cccc3ccc(C)nc23)c1Cl [Compound 19, 2-[5-(4-Cyano-benzoyl)-1-methyl-1H-pyrrol-2-yl]-N-[2,4-dichloro-3-(2-methyl-quinolin-8-yloxymethyl)-phenyl]-N-propyl-acetamide]
Ki: 3890 nM

COc1ccc(C(=O)c2ccc(CCC(=O)N(C)c3ccc(Cl)c(COc4cccc5ccc(C)nc45)c3Cl)s2)cc1 [Compound 107]
Ki: 321 nM

Reference: patent EP1914236A1 (Ortho-McNeil Pharmaceutical, Inc., priority 2002, dated 2003)
